SMILES strings stand for the structures.

The first assay deals with HIV. The assay can be described thus: Inhibition of HIV Replication (NL4-3), extracellular p24 in HuT-78 cells.
Conditions: not given
In kind it is cell-based. As for the experimental part: HuT-78 cells are seeded into 96 well microtitre plates at 50,000 cells per […] per well in RF-10 containing 2 μg/mL polybrene (RF-10/2). Compounds are prepared to 4× final concentration in RF-10/2, and […] added to cells. Virus (40 μL in RF-10/2 containing 1600 pfu) is added to each well or […] RF-10/2 for negative controls and for assaying compound cytotoxicity. After 24 hrs, an additional 90 μL of media or media containing 1× compound is added to each well. At 4 days post infection, 100 μL of media is removed from each well and replaced with 100 μl of fresh media with or without compound. Forty eight hours later supernatants are harvested and levels of extracellular p24 determined. Supernatants are diluted 1 in 10,000 and p24 levels assayed using the Vironostika p24 assay kit. EC50 is calculated as the concentration required to inhibit HIV p24 production to 50% that of no drug controls.
In the tables below, this assay type is referred to as NL4-3.
On to `CCOC(=O)NC1=CC(N2CCOCC2)=CN2C(=O)C(O)C(C(=O)NCc3ccc(F)cc3)=NC12` (stereo not drawn) [Example 23.4, ethyl 2-(4-fluorobenzylcarbamoyl)-3-hydroxy-7-morpholino-4-oxo-4,9a-dihydro-3H-pyrido[1,2-a]pyrimidin-9-yl carbamate], for which the EC50 lay within 1 to 10 nM.

Staying with this assay, now noted: Human immunodeficiency virus 1, NL43, HuT78.
`O=C(NCc1ccc(Cl)c(Cl)c1)c1nc2c(N3CCOCC3)cc(N3CCOCC3)cn2c(=O)c1O` [Example 22, N-(3,4-dichlorobenzyl)-3-hydroxy-7,9-dimorpholino-4-oxo-4H-pyrido[1,2-a]pyrimidine-2-carboxamide] gave an EC50 of 1 to 10 nM.
Same read-out and setting: then `O=C(NCc1ccc(F)cc1)c1nc2c(N3CCCS3(=O)=O)cc(N3CCOCC3)cn2c(=O)c1O` [Example 24.4, N-(4-fluorobenzyl)-9-(1,3-propanesultam)-3-hydroxy-7-morpholino-4-oxo-4H-pyrido[1,2-a]pyrimidine-2-carboxamide], with less than 1 nM.
Same read-out and setting: then `O=C(NCc1ccc(Cl)c(Cl)c1)c1nc2c(N3CCCS3(=O)=O)cc(N3CCOCC3)cn2c(=O)c1O` [Example 25, N-(3,4-dichlorobenzyl)-9-(1,3-propanesultam)-3-hydroxy-7-morpholino-4-oxo-4H-pyrido[1,2-a]pyrimidine-2-carboxamide], with less than 1 nM; and `CC(=O)Nc1cc(N2CCOCC2)cn2c(=O)c(O)c(C(=O)NCc3ccc(F)cc3)nc12` [Example 26.5, 9-acetamido-N-(4-fluorobenzyl)-3-hydroxy-7-morpholino-4-oxo-4H-pyrido[1,2-a]pyrimidine-2-carboxamide], with 20 to 100 nM; and `CC(=O)N(C)c1cc(N2CCOCC2)cn2c(=O)c(O)c(C(=O)NCc3ccc(F)cc3)nc12` [Example 28.3, N-(4-fluorobenzyl)-3-hydroxy-9-(N-methylacetamido)-7-morpholino-4-oxo-4H-pyrido[1,2-a]pyrimidine-2-carboxamide], with 1 to 10 nM.
On the same count and under the same terms, then `Cc1ccc2nc(C(=O)NCc3ccc(F)cc3)c(O)c(=O)n2c1` [drawing 183, reference compound], with 100 to 1000 nM; and `Cc1ccc2nc(C(=O)NCc3ccc(Cl)c(Cl)c3)c(O)c(=O)n2c1` [drawing 189, reference compound], with 100 to 1000 nM; and `O=C(NCc1ccc(F)cc1)c1nc2ccc(Br)cn2c(=O)c1O` [reference compound], with 100 to 1000 nM.

For a further assay, the system named is HIV-1. The assay can be described thus: Luciferase Assay with single-round reporter virus (NLXLuc or HIV-Luc). In kind it is cell-based. Particulars: Human immunodeficiency virus 1. The source says: Infectivity assays using reporter viruses derived from lentiviral vectors capable of a single round of infection were used to determine the activity (EC50) of compounds. The DNA used to generate viruses for infection was the full-length HIV-1 genome which had been envelope-deleted. In addition, a reporter gene (the firefly luciferase gene from Photinus pyralis) was cloned into the nefregion of the HIV backbone for ease of assay readout. […]. Culture supernatants containing VSV-G pseudotyped virions were harvested 64 h post transfection, clarified by centrifugation to remove cell debris, and frozen at −70° C. until use.
293FT cells were plated out at 12000 cells per well in CellView 96-well cell culture plates (Invitrogen) 16 h prior to compound addition. Compounds were preincubated with cells for 4 h at 37° C. prior to the addition of virus sufficient to generate approximately 10000 Luciferase light units (as measured by the Victor Wallace luminometer) upon assaying using the Bright-Glo™ reagent (Promega) according to the manufacturer's instructions at 48 h post infection.
In the tables below, this assay is referred to as NLXLuc or HIV-Luc.
Take `O=C(NCc1ccc(F)cc1)c1nc2c(N3CCCS3(=O)=O)cc(N3CCOCC3)cn2c(=O)c1O` [Example 24.4, N-(4-fluorobenzyl)-9-(1,3-propanesultam)-3-hydroxy-7-morpholino-4-oxo-4H-pyrido[1,2-a]pyrimidine-2-carboxamide]: the 50% effective concentration (EC50) is 10 to 20 nM.
The same measure, in the same setting: the figure for `CC(=O)N(C)c1cc(N2CCOCC2)cn2c(=O)c(O)c(C(=O)NCc3ccc(F)cc3)nc12` [Example 28.3, N-(4-fluorobenzyl)-3-hydroxy-9-(N-methylacetamido)-7-morpholino-4-oxo-4H-pyrido[1,2-a]pyrimidine-2-carboxamide] is 20 to 100 nM.
On the same count and under the same terms, then `CN1CCN(c2cc(N3CCOCC3)cn3c(=O)c(O)c(C(=O)NCc4ccc(Cl)c(Cl)c4)nc23)C1=O` [Example 30, N-(3,4-dichlorobenzyl)-3-hydroxy-9-(3-methyl-2-oxoimidazolidin-1-yl)-7-morpholino-4-oxo-4H-pyrido[1,2-a]pyrimidine-2-carboxamide], with 20 to 100 nM; and `CN1CCN(c2cc(N(C)C)cn3c(=O)c(O)c(C(=O)NCc4ccc(F)cc4)nc23)C1=O` [Example 31.3, 7-Dimethylamino-3-hydroxy-9-(3-methyl-2-oxo-imidazolidin-1-yl)-4-oxo-4H-pyrido[1,2-a]pyrimidine-2-carboxylic acid 4-fluoro-benzylamide], with 100 to 1000 nM.
The same measure, in the same setting: then `CC(C)N1CCN(c2cc(N3CCN(C)C3=O)c3nc(C(=O)NCc4ccc(F)cc4)c(O)c(=O)n3c2)CC1` [Example 32.4, 3-Hydroxy-7-(4-isopropyl-piperazin-1-yl)-9-(3-methyl-2-oxo-imidazolidin-1-yl)-4-oxo-4H-pyrido[1,2-a]pyrimidine-2-carboxylic acid 4-fluoro-benzylamide], with 10 to 20 nM.
As for `O=C(NCc1ccc(F)cc1)c1nc2c(N3CCCS3(=O)=O)cc(N3CCNCC3)cn2c(=O)c1O` [Example 33, 3-Hydroxy-4-oxo-9-(1,3-propanesultam)-7-piperazin-1-yl-4H-pyrido[1,2-a]pyrimidine-2-carboxylic acid 4-fluoro-benzylamide], the half-maximal effective concentration (EC50) lay in the range of 100 to 1000 nM.
Still for that read-out and setting: then `Cc1ccc2nc(C(=O)NCc3ccc(F)cc3)c(O)c(=O)n2c1` [drawing 177, reference compound], with more than 1000 nM; and `Cc1ccc2nc(C(=O)NCc3ccc(Cl)c(Cl)c3)c(O)c(=O)n2c1` [drawing 186, reference compound], with 100 to 1000 nM.

The assay is the same for the next values; noted with them: Human immunodeficiency virus 1, HEK-293T.
Consider `O=C(NCc1ccc(Cl)c(Cl)c1)c1nc2c(N3CCCS3(=O)=O)cc(N3CCOCC3)cn2c(=O)c1O` [Example 25, N-(3,4-dichlorobenzyl)-9-(1,3-propanesultam)-3-hydroxy-7-morpholino-4-oxo-4H-pyrido[1,2-a]pyrimidine-2-carboxamide], for which the EC50 was less than 1 nM.
